Assay results as given in US5514773A, “Depsipeptide derivatives, production thereof and use thereof” (Fujisawa Pharmaceutical Co., Ltd., priority 1992, dated 1996).

What was measured:
Format in all cases: in vivo
[1] = system: Nippostrongylus brasilienses; assay: Test 2: reduction of Nippostrongylus brasilienses in infected rats, subcutaneous administration; conditions: Wistar rats, otherwise as Test 1
Protocol: (§1) The effect of parasiticides was examined with the rats which was infected by nematodes which are parasitic on rats, Nippostrongylus brasilienses.
(§2) Wistar strain rats (female 6 weeks old, 120-130 g weight) were […] by infecting them and giving them subcutaneous injections of 3000 infective larvae per rat.
(§3) Test compound of 50 mg was dissolved in 0.25 ml dimethylsulfoxide, 0.5% methylcellulose solution was added, and liquid volume was adjusted to be prescribed volume of 100, 10, 5, 2.5, 1.25, 1.0, 0.63, 0.32 mg/kg to utilize. After they were infected, on each 7th, 8th, and 9th day, the test compound was administered orally with above concentration. On the 11th day, the rat was dissected and the numbers of parasites in the small intestines were measured.
The given measurement was based to calculate the reduction rate from the percentage of the numbers of the parasites of unadministered rats (control). The result of it is shown in the
The reduction rate was calculated in a similar manner as Test 1 except when the test compound was subcutaneously administered to the rats instead of oral administration as in Test 1.

[2] = system: Nippostrongylus brasilienses; assay: Test 1: reduction of Nippostrongylus brasilienses in infected rats, oral administration; conditions: Wistar rats, oral on 7th, 8th and 9th day after infection, parasites in small intestines counted on 11th day
Protocol: as §1, §2, §3
The given measurement was based to calculate the reduction rate from the percentage of the numbers of the parasites of unadministered rats (control). The result of it is shown in the […]

[3] = system: Strongyloides venezuelensis; assay: Test 3: Strongyloides venezuelensis in infected Mongolian gerbils, eggs in feces and worms recovered; conditions: oral once 20 mg/kg, group mean
Description: For 1 rat, the 5000 infective larvae of Strongyloides venezuelensis were infected percutaneously to one group (2 rats) of 8 weeks old Mongolian gerbils. On the 10th day after they were infected, the suspended test compound was orally administered once with the amount of established administration. The effect was judged according to the amount of the eggs in the feces or the numbers of worms in the intestinal tract. The measurement of the numbers of the eggs were taken from O ring method, and the numbers of the eggs (EPG) in 1 g of feces were counted on the day before, on the day, and on the 1st, 2nd, 3rd, and 4th day after the administration. The numbers of the parasites were measured by dissecting Mongolian gerbils the 4th day after the administration (on the 14th day after infection). The method of measurement was followed by releasing the parasites, which live in the small intestines, into saline solution over night, and the released parasites were set to be as numbers of worms recovered.

CC(C)C[C@H]1C(=O)O[C@H](Cc2ccccc2)C(=O)N(C)[C@@H](CC(C)C)C(=O)O[C@H](C)C(=O)N(C)[C@@H](CC(C)C)C(=O)O[C@H](Cc2ccccc2)C(=O)N(C)[C@@H](CC(C)C)C(=O)O[C@H](C)C(=O)N1C [PF1022]
Minimum Amount of Administration indicated by more than 95% of Reduction Rate [1]: > 100 mg/kg
Minimum Amount of Administration indicated by more than 95% of Reduction Rate [2]: 10 mg/kg
Change in Numbers of Parasites' Number of Eggs in Feces (EPG/100) ([3]; day 0 (starting day of administration)): 1615 EPG/100
Change in Numbers of Parasites' Number of Eggs in Feces (EPG/100) ([3]; day 1 after administration): 581 EPG/100
Change in Numbers of Parasites' Number of Eggs in Feces (EPG/100) ([3]; day 2 after administration): 1563 EPG/100
Change in Numbers of Parasites' Number of Eggs in Feces (EPG/100) ([3]; day 3 after administration): 935 EPG/100
Change in Numbers of Parasites' Number of Eggs in Feces (EPG/100) ([3]; day 4 after administration): 1005 EPG/100
Change in Numbers of Parasites' Number of Eggs in Feces (EPG/100) ([3]; day -2 (before administration)): 332 EPG/100
Numbers of the Worms recovered ([3]; dissected 4th day after administration): 3088
